Patent US9604974B2, “Compounds as modulator of JAK-STAT pathway, methods and applications thereof” (UNIVERSITY OF MYSORE, priority 2015, dated 2017)

How the values were obtained:
Huh 7-Luc tumors = assay: Orthotopic human HCC model, bioluminescence tumor growth; assay type: in vivo, athymic nu/nu female mice; settings: 10 mg/kg intraperitoneal, five days a week; p value=0.0385
Procedure: All animal experiments were performed according to protocols approved by the SingHealth Institutional Animal Use and Care Committee. For drug efficacy study, eight week-old athymic nu/nu female mice (from Biolasco, Taiwan) were implanted with the Huh 7-Luc cells orthotopically as described in the below examples. When the bioluminescence signal reached 10^6, mice were treated either with vehicle (1% DMSO), 2 mg/kg of CIMO or 10 mg/kg of CIMO five days a week intraperitoneally. Tumor development was monitored twice a week by measuring the bioluminescence signals. Mice were euthanized when the humane end-point criteria is met by CO2 inhalation. Primary liver tumor and lung tissues were excised, snap-frozen and stored at −80° C. until further analysis.
The antitumor potential of CIMO is tested in vivo via. intra-peritoneal administration in an orthotopic model of human HCC using Huh 7-Luc transfected cells. 100 μl containing 3×10^6 Huh 7-Luc cells are injected subcutaneously in the right flank of Nude mice. When the tumor volume reaches approximately 1 cm^3, tumor is harvested, cut into 2 mm^3 pieces and then implanted orthotopically into the liver of Nude mice. […] The development of tumors is monitored by imaging and quantification of the bioluminescence signals using the Xenogen IVIS system (Caliper Life Sciences, CA). […]

[1] = test system: MDA MB231 (breast cancer cell line); assay: MTT anti-proliferative assay, MDA MB231; assay type: cell-based; settings: Homo sapiens, MDA-MB-231
Procedure: The anti-proliferative activity of Formula I compounds are studied on HepG2 cells using MTT assay. Briefly, the cells (2.5×10^4/ml) are incubated in triplicate in a 96-well plate in the presence or absence of different concentrations of compounds in a final volume of 0.2 ml up to 72 hours at 37° C. Thereafter, 20 μl MTT solution (5 mg/ml in PBS) is added to each well. After 2 hours of incubation at 37° C., 0.1 ml lysis buffer (20% SDS, 50% dimethyl-formamide) is added; incubation is continued overnight at 37° C.; and the optical density (OD) at 570 nm is measured by Tecan plate reader.
Additionally, Compound 1 is tested on a panel of six cell lines including Hep3B, PLC/PRF5, AGS (gastric cancer cell line), DU145 (prostrate cancer cell line), MDA MB231 (breast cancer cell line) and CAL27 (head and neck cancer cell line) cells.

[2] = test system: STAT3 mediated transcription (α2-M promoter); assay: α2-macroglobulin promoter luciferase reporter assay; assay type: cell-based, human; settings: HepG2, versus DMSO control
Procedure: Increased STAT3 activity is known to stimulate oncogenicity of hepatocellular carcinoma. Therefore, evaluation of the level of phosphorylated STAT3 (Y705) in HepG2 cells is carried out with siRNA-mediated deletion of STAT3 transcripts and/or exposure to CIMO, using Western Blot analysis. Experiments related to transient-transfection of STAT3 siRNA in HepG2 cells and STAT3 mediated Transcription activity are performed wherein 60-70% confluent of cells in a 6-well plate are transfected using FuGENE6 (Roche Molecular Biochemicals, Indianapolis, USA) transfection reagent. Luciferase assay is performed using Dual Luciferase Assay Kit (Promega Corp, Singapore). Transfections are carried out in triplicate using 1 μg of the appropriate α-2 macroglobulin luciferase reporter plasmid and empty vector per transfection along with 0.2 μg of Renilla expression plasmid as control for transfection efficiency. Luciferase activities are assayed 48 hours after transfection using the dual Luciferase Assay System (Promega Corp, Singapore)
In addition, assessment of STAT3 mediated transcriptional activity using an α2-macroglobulin (α2-M) promoter in HepG2 cells with either siRNA-mediated depletion of STAT3 expression or on exposure to CIMO is carried out as described above (FIG. 3B).

[3] = test system: phospho-STAT3, Ki-67, cleaved caspase-3; assay: Immunohistochemistry of tumor tissues; assay type: in vivo, athymic nu/nu female mice; settings: treated vs. control group
Procedure: The effect of CIMO on constitutive phospho-STAT3 levels in HCC tumor tissues is further analyzed by immunohistochemical analysis. Solid tumors from control and drug-treated groups are fixed with 10% phosphate buffered formalin, processed, and embedded in paraffin. The sections are cut to 5 micron size and deparafinized in xylene, dehydrated in graded alcohol, and finally hydrated in water. Antigen retrieval is conducted by boiling the slide in 10 mM sodium citrate (pH 6.0) for about 30 minutes. Immunohistochemistry is conducted following the manufacturer's instructions (Dako LSAB Kit). Briefly, endogenous peroxidases are quenched with 3% hydrogen peroxide. Sections are incubated with primary antibodies for about 2 hours as follows: anti-pSTAT3, anti-Ki-67 and anti-caspase-3 (each at 1:100 dilutions). The slides are subsequently washed several times in TBS with 0.1% Tween-20 and are incubated with biotinylated linker for about 45 minutes, provided in the LSAB Kit according to the manufacturer's instructions. Immunoreactive species are detected using 3, 3′-diaminobenzidine tetrahydrochloride as a substrate. The sections are counterstained with Gill's hematoxylin and mounted under glass cover slips. Images are taken using an Olympus BX51 microscope (magnification, 40×). Quantitative analysis of immunohistochemistry images are done by visual scores between the control and treated images. In this expression quantitation technique, each image is divided into four parts and each part is individually quantitated for the biomarker expression. A cell scored as positive refers to the presence of brown staining (peroxidase) in any part of the studied tissue. A negative cell scored refers to no staining or weak staining.

IC50 [1]: 24.3 µM
α2-M promoter activity [2]: decreased α2-M promoter activity
SMILES: COc1ccc(C2CNC(c3cn(Cc4ccc(-c5ccccc5C#N)cc4)c4ccccc34)OC23CCCCC3)cc1 (stereo not drawn) [Compound 1]
tumor growth versus DMSO treated controls (Huh 7-Luc tumors): significant inhibition of tumor growth
constitutive STAT3 activation in tumor tissues [3]: significantly inhibits
expression of Ki-67 in tumor tissues [3]: downregulated
expression of cleaved caspase-3 in tumor tissues [3]: significantly increased
